Source: patent US8173645B2 (Takeda San Diego, Inc., priority 2007, dated 2012)

Target: T1, glucokinase (GK), residues 12-465 of the human enzyme (Homo sapiens, UniProt P35557)
T1 construct: I.D. No. 1 corresponds to residues 12-465 of glucokinase; made in house; host or cells: E. coli DH10b-Tlr
T1 sequence (P35557 with tags, fused parts or gaps isoform P35557-2): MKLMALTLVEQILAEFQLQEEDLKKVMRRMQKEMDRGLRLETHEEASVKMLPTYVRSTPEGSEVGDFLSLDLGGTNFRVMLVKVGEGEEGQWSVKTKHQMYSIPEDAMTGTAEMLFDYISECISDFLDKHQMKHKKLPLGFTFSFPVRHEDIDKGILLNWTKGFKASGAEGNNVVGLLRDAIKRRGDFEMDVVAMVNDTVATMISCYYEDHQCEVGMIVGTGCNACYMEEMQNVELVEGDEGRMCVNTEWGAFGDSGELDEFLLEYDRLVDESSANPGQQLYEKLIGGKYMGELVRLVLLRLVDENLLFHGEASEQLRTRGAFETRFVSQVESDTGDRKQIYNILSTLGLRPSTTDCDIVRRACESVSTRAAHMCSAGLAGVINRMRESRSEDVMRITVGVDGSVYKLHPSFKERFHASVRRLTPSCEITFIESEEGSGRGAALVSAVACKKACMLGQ
Test: Enzymatic glucokinase activity assay (KinaseGlo luminescence, ATP consumption)
Assay type: biochemical
Conditions: 5 μM ATP, 5 mM Glucose; for EC50: GK activation, Kact = concentration giving 50% of the maximal increase in GK activity, read-out: pKact; for Emax: calculated maximal gain in GK enzyme activity at a saturating concentration of the compound, read-out: % ACTmax
Method in brief: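 C-terminally FLAG-tagged enzyme expressed in E. coli and purified. Reaction: 25 mM Hepes pH 7.2, 25 mM NaCl, 10 mM MgCl2, 0.01% Brij35, 1 mM DTT, 5 μM ATP, 5 mM glucose, 2% DMSO, 60 min at room temperature. Remaining ATP was read by luciferase luminescence; pKact and % ACTmax came from nonlinear fits of 11-point 2-fold dilutions.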

O=C(Nc1nccs1)[C@H](CC1CCCCC1)N1CCN(C(=S)NCCN2CCCCC2)CC1=O [Example 121, (S)-3-cyclohexyl-2-(2-oxo-4-(2-(piperidin-1-yl)ethylcarbamothioyl)piperazin-1-yl)-N-(thiazol-2-yl)propanamide]
EC50: ≤ 631 nM | Emax: 97.1 to 107%

O=C(Nc1nccs1)[C@H](CC1CCCCC1)N1CCN(C(=S)NC2CC2)CC1=O [Example 129, (S)-3-cyclohexyl-2-(4-(cyclopropylcarbamothioyl)-2-oxopiperazin-1-yl)-N-(thiazol-2-yl)propanamide]
EC50: 1580 to 2510 nM | Emax: 97.1 to 107%

O=C(Nc1nccs1)[C@H](CC1CCCCC1)N1CCN(S(=O)(=O)c2cccc(OC(F)F)c2)CC1=O [Example 106, (S)-3-cyclohexyl-2-(4-(3-(difluoromethoxy)phenylsulfonyl)-2-oxopiperazin-1-yl)-N-(thiazol-2-yl)propanamide]
EC50: 794 to 1260 nM | Emax: 108 to 119%

O=C(Nc1nccs1)[C@H](CC1CCCCC1)N1CCN(S(=O)(=O)c2ccc3ccccc3c2)CC1=O [Example 39, (S)-3-cyclohexyl-2-(4-(naphthalen-2-ylsulfonyl)-2-oxopiperazin-1-yl)-N-(thiazol-2-yl)propanamide]
EC50: 794 to 1260 nM | Emax: ≤ 74%

NS(=O)(=O)c1ccc(NC(=S)N2CCN([C@@H](CC3CCCCC3)C(=O)Nc3nccs3)C(=O)C2)cc1 [Example 134, (S)-3-cyclohexyl-2-(2-oxo-4-(4-sulfamoylphenylcarbamothioyl)piperazin-1-yl)-N-(thiazol-2-yl)propanamide]
EC50: 1580 to 2510 nM | Emax: 108 to 119%

Cc1cc(S(=O)(=O)N2CCN([C@@H](CC3CCCCC3)C(=O)Nc3nccs3)C(=O)C2)c(Cl)cc1Cl [Example 221, (S)-3-cyclohexyl-2-(4-(2,4-dichloro-5-methylphenylsulfonyl)-2-oxopiperazin-1-yl)-N-(thiazol-2-yl)propanamide]
EC50: 1580 to 2510 nM | Emax: ≤ 74%

Cc1noc(C)c1S(=O)(=O)N1CCN([C@@H](CC2CCCCC2)C(=O)Nc2nccs2)C(=O)C1 [Example 173, (S)-3-cyclohexyl-2-(4-(3,5-dimethylisoxazol-4-ylsulfonyl)-2-oxopiperazin-1-yl)-N-(thiazol-2-yl)propanamide]
EC50: ≥ 3160 nM | Emax: 74.1 to 97%

O=C(Nc1nccs1)[C@H](CC1CCCCC1)N1CCN(S(=O)(=O)c2ccccc2)CC1=O [Example 79, (S)-3-cyclohexyl-2-(2-oxo-4-(phenylsulfonyl)piperazin-1-yl)-N-(thiazol-2-yl)propanamide]
EC50: ≤ 631 nM | Emax: 97.1 to 107%

O=C(Nc1ncc(Cl)s1)[C@H](CC1CCOCC1)N1CCN(S(=O)(=O)C2CC2)CC1=O [Example 24, (S)-N-(5-chlorothiazol-2-yl)-2-(4-(cyclopropylsulfonyl)-2-oxopiperazin-1-yl)-3-(tetrahydro-2H-pyran-4-yl)propanamide]
EC50: 794 to 1260 nM | Emax: ≥ 119%

COC(=O)c1c(C)oc(C)c1S(=O)(=O)N1CCN([C@@H](CC2CCCCC2)C(=O)Nc2nccs2)C(=O)C1 [Example 162, (S)-methyl 4-(4-(3-cyclohexyl-1-oxo-1-(thiazol-2-ylamino)propan-2-yl)-3-oxopiperazin-1-ylsulfonyl)-2,5-dimethylfuran-3-carboxylate]
EC50: ≥ 3160 nM | Emax: ≤ 74%

COc1ccc2nc(NC(=O)C(CC3CCOCC3)N3CCN(S(=O)(=O)C4CCCC4)CC3=O)sc2n1 (centres unmarked) [Example 29, 2-(4-(cyclopentylsulfonyl)-2-oxopiperazin-1-yl)-N-(5-methoxythiazolo[5,4-b]pyridin-2-yl)-3-(tetrahydro-2H-pyran-4-yl)propanamide]
EC50: 794 to 1260 nM | Emax: 108 to 119%

O=C(Nc1ncc(F)s1)[C@H](CC1CCOCC1)N1CCN(S(=O)(=O)C2CC2)CC1=O [Example 21, (S)-2-(4-(cyclopropylsulfonyl)-2-oxopiperazin-1-yl)-N-(5-fluorothiazol-2-yl)-3-(tetrahydro-2H-pyran-4-yl)propanamide]
EC50: 1580 to 2510 nM | Emax: 108 to 119%

Cc1cccc(S(=O)(=O)N2CCN([C@@H](CC3CCCCC3)C(=O)Nc3nccs3)C(=O)C2)c1 [Example 192, (S)-3-cyclohexyl-2-(2-oxo-4-(m-tolylsulfonyl)piperazin-1-yl)-N-(thiazol-2-yl)propanamide]
EC50: ≤ 631 nM | Emax: ≥ 119%

Cc1cc(S(=O)(=O)N2CCN([C@@H](CC3CCCCC3)C(=O)Nc3nccs3)C(=O)C2)c(C)cc1Cl [Example 186, (S)-2-(4-(4-chloro-2,5-dimethylphenylsulfonyl)-2-oxopiperazin-1-yl)-3-cyclohexyl-N-(thiazol-2-yl)propanamide]
EC50: ≤ 631 nM | Emax: ≤ 74%

O=C(Nc1nccs1)[C@H](CC1CCCCC1)N1CCN(S(=O)(=O)CC(F)(F)F)CC1=O [Example 93, (S)-3-cyclohexyl-2-(2-oxo-4-(2,2,2-trifluoroethylsulfonyl)piperazin-1-yl)-N-(thiazol-2-yl)propanamide]
EC50: 1580 to 2510 nM | Emax: ≥ 119%

Cc1ccc(S(=O)(=O)N2CCN([C@@H](CC3CCCCC3)C(=O)Nc3nccs3)C(=O)C2)cc1 [Example 202, (S)-3-cyclohexyl-2-(2-oxo-4-tosylpiperazin-1-yl)N-(thiazol-2-yl)propanamide]
EC50: 1580 to 2510 nM | Emax: 108 to 119%

Cc1cc(S(=O)(=O)N2CCN([C@@H](CC3CCCCC3)C(=O)Nc3nccs3)C(=O)C2)c(C)o1 [Example 181, (S)-3-cyclohexyl-2-(4-(2,5-dimethylfuran-3-ylsulfonyl)-2-oxopiperazin-1-yl)-N-(thiazol-2-yl)propanamide]
EC50: ≤ 631 nM | Emax: 108 to 119%

O=C(Nc1nccs1)[C@H](CC1CCCCC1)N1CCN(S(=O)(=O)c2cc(Cl)c(Cl)cc2Cl)CC1=O [Example 219, (S)-3-cyclohexyl-2-(2-oxo-4-(2,4,5-trichlorophenylsulfonyl)piperazin-1-yl)-N-(thiazol-2-yl)propanamide]
EC50: 1580 to 2510 nM | Emax: ≤ 74%

CC(=O)c1cccc(S(=O)(=O)N2CCN([C@@H](CC3CCCCC3)C(=O)Nc3nccs3)C(=O)C2)c1 [Example 196, (S)-2-(4-(3-acetylphenylsulfonyl)-2-oxopiperazin-1-yl)-3-cyclohexyl-N-(thiazol-2-yl)propanamide]
EC50: 1580 to 2510 nM | Emax: 97.1 to 107%

O=C(Nc1nccs1)[C@H](CC1CCCCC1)N1CCN(C(=S)Nc2ccccc2OC(F)(F)F)CC1=O [Example 136, (S)-3-cyclohexyl-2-(2-oxo-4-(2-(trifluoromethoxy)phenylcarbamothioyl)piperazin-1-yl)-N-(thiazol-2-yl)propanamide]
EC50: 794 to 1260 nM | Emax: ≥ 119%

O=C(Nc1nccs1)[C@H](CC1CCCCC1)N1CCN(S(=O)(=O)c2ccc(-c3cnco3)s2)CC1=O [Example 161, (S)-3-cyclohexyl-2-(4-(5-(oxazol-5-yl)thiophen-2-ylsulfonyl)-2-oxopiperazin-1-yl)-N-(thiazol-2-yl)propanamide]
EC50: 1580 to 2510 nM | Emax: 97.1 to 107%

O=C(Nc1ncc(Cl)s1)[C@H](CC1CCOCC1)N1CCN(S(=O)(=O)c2cccc(F)c2)CC1=O [Example 150, (S)-N-(5-chlorothiazol-2-yl)-2-(4-(3-fluorophenylsulfonyl)-2-oxopiperazin-1-yl)-3-(tetrahydro-2H-pyran-4-yl)propanamide]
EC50: ≤ 631 nM | Emax: 108 to 119%
